# Results reported in patent publication US11771735B2, “Composition for improving or preventing nonalcoholic fatty liver” (KOHJIN LIFE SCIENCES CO., LTD., priority 2015, dated 2023).
# Legend:
# [1] = tested on: subjects who had NAFLD in 31 IU/L or more of ALT; conditions: Case IDs 1 to 9 (group affected); at least one week after initiation; oral 300 mg per day
# [2] = tested on: Mice (C57/B6J) fed with high-fat food; conditions: 20 weeks old
# Excerpt: Mice (C57/B6J, 8 weeks old male) were divided into 4 groups (5 animals each), and the first group (DB) was freely fed with ordinary food (CertifiedDiet “MF” manufactured by Oriental Yeast Co., ltd.). The second group (HFD) was freely fed with high-fat food (High Fat Diet 32, manufactured by CLEA Japan, Inc.), […].
# When the mouse was 20 weeks old, the body weight, the liver weight, the serum aspartate aminotransferase (AST), the alanine aminotransferase (ALT), the serum triglyceride (TG), the free fatty acid value (FFA) and the total cholesterol value (T-cho) were measured.
# [3] = HFD6 (6 mg/kg/day) and HFD60 (60 mg/kg/day) groups in comparison to HFD group
# [4] = high-fat food mice, glutathione 6 and 60 mg/kg/day in water
structure (smiles),measurement,setting,value
N[C@@H](CCC(=O)N[C@@H](CS)C(=O)NCC(=O)O)C(=O)O [glutathione],improvement of ALT after the administration versus before administration (0 wk),[1],≥ 20%
same,serum ALT,[2]; [3],significant decrease
same,serum AST,[2]; [3],significant decrease
same,serum FFA (free fatty acid value),[2]; [3],significant decrease
same,serum T-cho (total cholesterol value),[2]; [3],significant decrease
same,serum TG (triglyceride value),[2]; [3],significant decrease
same,liver weight,[2]; [4],the liver weight decreased dependently on the concentration
same,ratio of liver weight/body weight,[2]; [4],decrease of the body weight ratio was also recognized
same,body weight,"[2]; high-fat food mice, glutathione 6 or 60 mg/kg/day in water",decrease of the body weight was recognized
